Data set [1] has as its system Staphylococcus aureus. The data set can be described thus: Antibacterial activity against hospital-associated methicillin-resistant Staphylococcus aureus isolate 56 (494) infected in neutropenic BALB/c mouse lung infection model assessed as reduction of CFU at 110 mg/kg, ip administered every 12 hrs measured after 24 hrs. The format is functional, organism-based. The arrangement: dose 110 mg/kg.

In the next data set the test system is Homo sapiens. The data set can be described thus: fAUC in human at 1 gram administered every 12 hrs. The following applies: in vivo. It counts as ADME, organism-based.
The test system of data set [2] is Staphylococcus aureus. Description: Antibacterial activity against hospital-associated methicillin-resistant Staphylococcus aureus isolate 152 infected in neutropenic BALB/c mouse lung infection model assessed as reduction of CFU at 110 mg/kg, ip administered every 12 hrs measured after 24 hrs. It counts as functional, organism-based. The arrangement: dose 110 mg/kg.

The subject of data set [3] is Staphylococcus aureus. The data set can be described thus: Antibacterial activity against community-associated methicillin-resistant Staphylococcus aureus isolate 156 infected in neutropenic BALB/c mouse lung infection model assessed as reduction of CFU at 110 mg/kg, ip administered every 12 hrs measured after 24 hrs. The arrangement: dose 110 mg/kg. It counts as functional, organism-based.

The test system of data set [4] is Staphylococcus aureus. The data set can be described thus: Antibacterial activity against community-associated methicillin-resistant Staphylococcus aureus isolate 145 infected in neutropenic BALB/c mouse lung infection model assessed as reduction of CFU at 110 mg/kg, ip administered every 12 hrs measured after 24 hrs. The format is functional, organism-based. The arrangement: dose 110 mg/kg.

Data set [5] deals with Staphylococcus aureus. The data set can be described thus: Antibacterial activity against hospital-associated methicillin-resistant Staphylococcus aureus isolate 336 infected in neutropenic BALB/c mouse lung infection model assessed as reduction of CFU at 110 mg/kg, ip administered every 12 hrs measured after 24 hrs. The arrangement: dose 110 mg/kg. The format is functional, organism-based.

Data set [6] relates to Staphylococcus aureus. Description: Antibacterial activity against hospital-associated methicillin-resistant Staphylococcus aureus isolate 360 infected in neutropenic BALB/c mouse lung infection model assessed as reduction of CFU at 110 mg/kg, ip administered every 12 hrs measured after 24 hrs. The format is functional, organism-based. Also on record: dose 110 mg/kg.
For data set [7], the system named is Staphylococcus aureus. Description: Antibacterial activity against hospital-associated methicillin-resistant Staphylococcus aureus isolate 412 infected in neutropenic BALB/c mouse lung infection model assessed as reduction of CFU at 110 mg/kg, ip administered every 12 hrs measured after 24 hrs. The format is functional, organism-based. Also on record: dose 110 mg/kg.

For data set [8], the system named is Staphylococcus aureus. The data set can be described thus: Antibacterial activity against vancomycin-heteroresistant Staphylococcus aureus isolate 38 (Mu3) infected in neutropenic BALB/c mouse lung infection model assessed as reduction of CFU at 110 mg/kg, ip administered every 12 hrs measured after 24 hrs. The format is functional, organism-based. The arrangement: dose 110 mg/kg.

For data set [9], the system named is Staphylococcus aureus. The data set can be described thus: Antibacterial activity against vancomycin-heteroresistant Staphylococcus aureus isolate 443 infected in neutropenic BALB/c mouse lung infection model assessed as reduction of CFU at 110 mg/kg, ip administered every 12 hrs measured after 24 hrs. The format is functional, organism-based. Also on record: dose 110 mg/kg.

For data set [10], the system named is Staphylococcus aureus. Description: Antibacterial activity against vancomycin-intermediate Staphylococcus aureus isolate 435 infected in neutropenic BALB/c mouse lung infection model assessed as reduction of CFU at 110 mg/kg, ip administered every 12 hrs measured after 24 hrs. The format is functional, organism-based. The arrangement: dose 110 mg/kg.
In data set [11] the test system is Staphylococcus aureus. The data set can be described thus: Antibacterial activity against vancomycin-intermediate Staphylococcus aureus isolate 440 (A6298) infected in neutropenic BALB/c mouse lung infection model assessed as reduction of CFU at 110 mg/kg, ip administered every 12 hrs measured after 24 hrs. The format is functional, organism-based. The arrangement: dose 110 mg/kg.

The subject of data set [12] is Staphylococcus aureus. The data set can be described thus: Antibacterial activity against vancomycin-intermediate Staphylococcus aureus isolate 453 (NRS23) infected in neutropenic BALB/c mouse lung infection model assessed as reduction of CFU at 110 mg/kg, ip administered every 12 hrs measured after 24 hrs. The format is functional, organism-based. Also on record: dose 110 mg/kg.

Data set [13] deals with Staphylococcus aureus. Description: Antibacterial activity against vancomycin-intermediate Staphylococcus aureus isolate 454 (NRS404) infected in neutropenic BALB/c mouse lung infection model assessed as reduction of CFU at 110 mg/kg, ip administered every 12 hrs measured after 24 hrs. It counts as functional, organism-based. The arrangement: dose 110 mg/kg.
Data set [14] in a line: AUC (0 to 12 hrs) in BALB/c mouse at 110 mg/kg, sc. As to conditions: plasma.
The next data set deals with Mus musculus. The data set can be described thus: fAUC in BALB/c mouse at 110 mg/kg, sc administered every 12 hrs. The following applies: in vivo.

SMILES strings stand for the structures. Calls of active or inactive are those of the source. No cut-off for these calls is given here.

On to `CN[C@H](CC(C)C)C(=O)N[C@H]1C(=O)N[C@@H](CC(N)=O)C(=O)N[C@H]2C(=O)N[C@H]3C(=O)N[C@H](C(=O)N[C@H](C(=O)O)c4cc(O)cc(O)c4-c4cc3ccc4O)[C@H](O)c3ccc(c(Cl)c3)Oc3cc2cc(c3O[C@@H]2O[C@H](CO)[C@@H](O)[C@H](O)[C@H]2O[C@H]2C[C@](C)(N)[C@H](O)[C@H](C)O2)Oc2ccc(cc2Cl)[C@H]1O` [VANCOMYCIN], for which the result in the data set with Staphylococcus aureus [1], with Staphylococcus aureus [2], with Staphylococcus aureus [3], in the data set with Staphylococcus aureus [4], in the data set with Staphylococcus aureus [5] and in the data set on Staphylococcus aureus [6] was Active. Moreover, the outcome in the data set with Staphylococcus aureus [7], with Staphylococcus aureus [8], with Staphylococcus aureus [9], in the data set with Staphylococcus aureus [10], with Staphylococcus aureus [11] and with Staphylococcus aureus [12] was Active. Further, the outcome in the data set on Staphylococcus aureus [13] was Active. The fAUC amounted to 208 µg·h/mL in the data set on Homo sapiens and 196 µg·h/mL with Mus musculus. Besides, the exposure AUC(0-t) at 12 h in [14] amounted to 140 µg·h/mL.
